Source: patent US6274616A, “N,N-diethylglycolamido ester prodrugs of indole sPLA2 inhibitors” (Eli Lilly and Company, priority 2000, dated 2001)

Tests used:
[1] = target: recombinant human secreted phospholipase A2; conditions: cited from earlier work
[2] = target: recombinant human secreted phospholipase A2; conditions: guinea pig lung tissue; data from U.S. Pat. No. 5,654,326; read-out: Tissue test secreted PLA2 Apparent KB; cited from earlier work
[3] = Assay III: Rat Plasma Pharmacokinetics Study (oral bioavailability); assay type: in vivo, Rat (Fischer 344)
Method: The bioavailability of the compound of the invention, ((3-(2-amino-1,2-dioxoethyl)-1-((1,1'-biphenyl)-3-ylmethyl)-2-methyl-1H-indol-4-yl)oxy)acetic acid N,N-diethylglycolamido ester, was determined using a Rat Plasma Pharmacokinetics Study:
The purpose of this assay was to evaluate and compare the oral delivery for selected sPLA2 inhibitors.
The amount of sPLA2 inhibitor was corrected for free acid equivalents.
Suspension of sPLA2 inhibitor in 10% Acacia, prepared just prior to dose administration
Dose: 10 mg/kg (of the parent acid)
Blood samples (0.8 ml) were obtained at the following times: 0.5, 1, 2, 4, 8 and 24 hours (2 rats/timepoint)
Plasma was assayed by HPLC to measure concentrations of the different sPLA2 inhibitors (as free acids).
Cmax (maximal plasma concentrations), and AUC values were determined from the mean plasma concentration-time profiles.

What does the source list for Cc1c(C(=O)C(N)=O)c2c(OCC(=O)O)cccc2n1Cc1cccc(-c2ccccc2)c1 [Compound of formula (II), ((3-(2-amino-1,2-dioxoethyl)-1-((1,1'-biphenyl)-3-ylmethyl)-2-methyl-1H-indol-4-yl)oxy)acetic acid]?
IC50 ([1]; chromogenic assay, 3-4 tests, data from U.S. Pat. No. 5,654,326, read-out: Inhibition of human secreted PLA2 IC50 ± mean deviation (3-4 tests)): 0.00433 ± 0.00231 µM; inhibiting sPLA2 (conclusion in words) ([1]; conclusion of Assay 1, Table I): highly active in inhibiting sPLA2; Kb [2]: 0.057 ± 0.011 µM

For CCN(CC)C(=O)COC(=O)COc1cccc2c1c(C(=O)C(N)=O)c(C)n2Cc1cccc(-c2ccccc2)c1 [N,N-diethylglycolamido, ((3-(2-amino-1,2-dioxoethyl)-1-((1,1'-biphenyl)-3-ylmethyl)-2-methyl-1H-indol-4-yl)oxy)acetic acid N,N-diethylglycolamido ester], which “oral bioavailability compared with other esters (in words)” value ([3]; conclusion from Table 3) is on record?
Its value is “unexpectedly more bioavailable than many other esters of the sPLA2 inhibitor”.

What about the “oral bioavailability compared with other esters (in words)” value ([3]; conclusion from Table 3, listed as compound of formula (I)) of the same molecule?
Its value is “highly bioavailable upon oral administration compared to other common ester type prodrugs”.
